# In patent US6916797B2, “α-arylethylpiperazine derivatives as neurokinin antagonists” (UCB, S.A., priority 2000, dated 2005):
# Biological target: NK1 receptors (Homo sapiens, UniProt P25103)
# Experiment: Binding of [4,5-3H-Leu10] substance P to human recombinant NK1 receptors expressed in CHO cell membranes
# Parameters: host or cells: CHO cells
# Conditions: pIC50 = -log IC50, concentration inhibiting by 50% the specific binding of [4,5-3H] substance P; tested as the free base/salt given in c1
# Description: The following test was designed to assess the affinity of test substances for human recombinant NK1 receptors expressed in Chinese Hamster Ovarian (CHO) cells.
# CHO cells expressing the human recombinant NK1 receptor are used. The cells were obtained from Euroscreen (Brussels, Belgium).
# Cells expressing the human NK1 receptor are routinely cultured in 175 cm2 flasks containing 75 ml of medium F12 (Ham) enriched with 2 mmol/l L-glutamine, 100 IU/ml penicilline, 100 μg/ml streptomycine, 1% sodium pyruvate, 2.5 μg/ml fungizone amphotericin B, 400 μg/ml geneticin and supplemented with 10% foetal calf serum. […] When subcultured, the cells are seeded at a concentration of 50,000 cells/cm2.
# Confluent cells are gently scraped and resuspended in 25 ml of phosphate buffered saline without calcium and magnesium. The cellular suspension is centrifuged at 1500×g for 3 min (4° C.). The cell pellet is homogenized in a 15 mmol/l Tris-HCl (pH 7.5) buffer, 2 mmol/l MgCl2, 0.3 mmol/l EDTA, 1 mmol/l EGTA. The crude membrane fraction is collected by two consecutive centrifugation steps at 40,000×g for 25 min (4° C.). The final pellet is resuspended in 20 mmol/l Tris-HCl (pH 7.4), 250 mmol/l sucrose buffer at a protein concentration ranging from 2 to 6 mg/ml and stored in liquid nitrogen. • 1.2.2. Test Design
# The inhibition constant (Ki) is determined using increasing concentrations of the test substance. The concentration range usually encompasses 6 log units with variable steps (0.3 to 1 log). Assays are performed in mono- or duplicate.
# Membranes are incubated at 25° C. for 60 min in 0.5 ml of a 50 mmol/l Tris-HCl buffer (pH 7.4) containing 2 mmol/l MgCl2, 100 μg/ml bacitracine, 0.1 to 0.4×10^−9 mol/l of [4,5^3H-Leu^10] substance P (specific activity>100 Ci/mmol) and increasing concentrations of the test substance. […] Membrane-bound and free radioligands are separated by rapid filtration through glass fiber filters (equivalent to Whatman GF/C or GF/B; VEL, Belgium) presoaked in 0.1% polyethyleneimine to reduce non specific binding. Samples and filters are rinsed by at least 6 ml of 50 mmol/l Tris-HCl (pH 7.4) buffer.
# Initial values for the different variables may be provided by the experimenter.
# Sequence of NK1 receptors (P25103 whole entry): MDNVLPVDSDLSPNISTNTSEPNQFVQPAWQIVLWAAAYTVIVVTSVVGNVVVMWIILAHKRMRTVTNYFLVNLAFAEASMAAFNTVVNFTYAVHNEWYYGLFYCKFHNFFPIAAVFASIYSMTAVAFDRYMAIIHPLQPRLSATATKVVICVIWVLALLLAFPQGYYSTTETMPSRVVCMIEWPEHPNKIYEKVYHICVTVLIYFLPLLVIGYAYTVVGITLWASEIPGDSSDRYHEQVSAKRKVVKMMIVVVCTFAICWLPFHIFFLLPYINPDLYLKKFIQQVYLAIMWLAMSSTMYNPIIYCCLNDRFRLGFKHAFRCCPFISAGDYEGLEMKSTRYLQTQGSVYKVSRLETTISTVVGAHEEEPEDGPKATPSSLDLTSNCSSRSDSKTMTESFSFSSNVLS
row,SMILES,IC50 [nM]
1,O=C(O)C(c1ccccc1)N1CCN([C@H](COCc2cc(C(F)(F)F)cc(C(F)(F)F)c2)c2ccccc2)CC1 (mixture of isomers) [Compound 244],39.8
2,"CCOC(=O)CCCN1CCN(C(COCc2cc(C(F)(F)F)cc(C(F)(F)F)c2)c2ccccc2)CC1 (racemic) [Compound 138, 4-{4-[2-(3,5-Bis-trifluoromethyl-benzyloxy)-1-phenyl-ethyl]-piperazin-1-yl}-butyric acid ethyl ester]",10
3,COC(=O)CCCCN1CCN(C(COCc2cc(C(F)(F)F)cc(C(F)(F)F)c2)c2ccccc2)CC1 (racemic) [Compound 139],6.31
4,CCOC(=O)CCCCCN1CCN(C(COCc2cc(C(F)(F)F)cc(C(F)(F)F)c2)c2ccccc2)CC1 (racemic) [Compound 141],7.94
5,CC(C)OC(=O)CCCCCN1CCN(C(COCc2cc(C(F)(F)F)cc(C(F)(F)F)c2)c2ccccc2)CC1 (racemic) [Compound 142],7.94
6,NC(=O)COCCN1CCN(C(COCc2cc(C(F)(F)F)cc(C(F)(F)F)c2)c2ccccc2)CC1 (racemic) [Compound 147],10
7,NC(=O)CCCCCN1CCN(C(COCc2cc(C(F)(F)F)cc(C(F)(F)F)c2)c2ccccc2)CC1 (racemic) [Compound 150],5.01
8,N#CCCCN1CCN(C(COCc2cc(C(F)(F)F)cc(C(F)(F)F)c2)c2ccccc2)CC1 (racemic) [Compound 151],20
9,N#CCCCCN1CCN(C(COCc2cc(C(F)(F)F)cc(C(F)(F)F)c2)c2ccccc2)CC1 (racemic) [Compound 152],12.6
10,N#CCOCCN1CCN(C(COCc2cc(C(F)(F)F)cc(C(F)(F)F)c2)c2ccccc2)CC1 (racemic) [Compound 155],15.8
11,N#CCCCCCN1CCN(C(COCc2cc(C(F)(F)F)cc(C(F)(F)F)c2)c2ccccc2)CC1 (racemic) [Compound 156],7.94
12,"OCCN1CCN(C(COCc2cc(C(F)(F)F)cc(C(F)(F)F)c2)c2ccccc2)CC1 (racemic) [Compound 157, 2-{4-[2-(3,5-Bis-trifluoromethyl-benzyloxy)-1-phenyl-ethyl]-piperazin-1-yl}-ethanol]",6.31
13,O=S1(=O)CCN(CCN2CCN(C(COCc3cc(C(F)(F)F)cc(C(F)(F)F)c3)c3ccccc3)CC2)CC1 (racemic) [Compound 161],7.94
14,FC(F)(F)c1cc(COCC(c2ccccc2)N2CCN(CCN3CCOCC3)CC2)cc(C(F)(F)F)c1 (racemic) [Compound 162],7.94
15,FC(F)(F)c1cc(COCC(c2ccccc2)N2CCN(Cc3ccccn3)CC2)cc(C(F)(F)F)c1 (racemic) [Compound 170],50.1
16,O=C1c2ccccc2C(=O)N1CCN1CCN(C(COCc2cc(C(F)(F)F)cc(C(F)(F)F)c2)c2ccccc2)CC1 (racemic) [Compound 171],79.4
17,COc1cc(COCCN2CCN(C(COCc3cc(C(F)(F)F)cc(C(F)(F)F)c3)c3ccccc3)CC2)cc(OC)c1OC (racemic) [Compound 175],5.01
18,NC(=O)CN1CCN(C(COCc2cc(C(F)(F)F)cc(C(F)(F)F)c2)c2cccc3ccccc23)CC1 (racemic) [Compound 191],63.1
19,COC(=O)CN1CCN(C(COCc2cc(Br)cc(I)c2)c2ccccc2)CC1 (racemic) [Compound 208],63.1

row,SMILES,IC50 [nM]
1,CC(C)(C)NC(=O)CN1CCN(C(COCc2cc(C(F)(F)F)cc(C(F)(F)F)c2)c2ccccc2)CC1 (racemic) [Compound 293],63.1
2,CN(C(=O)CN1CCN(C(COCc2cc(C(F)(F)F)cc(C(F)(F)F)c2)c2ccccc2)CC1)C(C)(C)C (racemic) [Compound 294],12.6
3,CC(C)OC(=O)CN1CCN([C@H](COCc2cc(C(F)(F)F)cc(C(F)(F)F)c2)c2ccccc2)CC1 [Compound 136],79.4
4,NC(=O)CN1CCN(C(COCc2cc(C(F)(F)F)cc(C(F)(F)F)c2)c2ccccc2)CC1 (stereo not drawn) [Compound 143],39.8
5,"NC(=O)CN1CCN([C@H](COCc2cc(C(F)(F)F)cc(C(F)(F)F)c2)c2ccccc2)CC1 [Compound 144, (S)-2-{4-[2-(3,5-Bis-trifluoromethyl-benzyloxy)-1-phenyl-ethyl]-piperazin-1-yl}-acetamide]",39.8
6,NC(=O)CN1CCN([C@@H](COCc2cc(C(F)(F)F)cc(C(F)(F)F)c2)c2ccccc2)CC1 [Compound 145],31.6
7,NC(=O)CCN1CCN(C(COCc2cc(C(F)(F)F)cc(C(F)(F)F)c2)c2ccccc2)CC1 (stereo not drawn) [Compound 146],15.8
8,NC(=O)COCCN1CCN([C@H](COCc2cc(C(F)(F)F)cc(C(F)(F)F)c2)c2ccccc2)CC1 [Compound 148],39.8
9,NC(=O)COCCN1CCN([C@@H](COCc2cc(C(F)(F)F)cc(C(F)(F)F)c2)c2ccccc2)CC1 [Compound 149],63.1
10,OCCOCCN1CCN([C@H](COCc2cc(C(F)(F)F)cc(C(F)(F)F)c2)c2ccccc2)CC1 [Compound 158],7.94
11,CCOP(=O)(CCN1CCN([C@H](COCc2cc(C(F)(F)F)cc(C(F)(F)F)c2)c2ccccc2)CC1)OCC [Compound 164],39.8
12,COc1cc(CN2CCN([C@H](COCc3cc(C(F)(F)F)cc(C(F)(F)F)c3)c3ccccc3)CC2)cc(OC)c1OC [Compound 173],25.1
13,COc1cc(CN2CCN([C@@H](COCc3cc(C(F)(F)F)cc(C(F)(F)F)c3)c3ccccc3)CC2)cc(OC)c1OC [Compound 174],39.8
14,COc1cc(COCCN2CCN(C(COCc3cc(C(F)(F)F)cc(C(F)(F)F)c3)c3ccccc3)CC2)cc(OC)c1OC (stereo not drawn) [Compound 176],25.1
15,FC(F)(F)c1cc(COCC(c2ccccc2)N2CCN(c3ccnc4ccccc34)CC2)cc(C(F)(F)F)c1 (stereo not drawn) [Compound 227],39.8
16,"NC(=O)CCCN1CCN(C(COCc2cc(C(F)(F)F)cc(C(F)(F)F)c2)c2ccccc2)CC1 (stereo not drawn) [Compound 288, 4-{4-[2-(3,5-Bis-trifluoromethyl-benzyloxy)-1-phenyl-ethyl]-piperazin-1-yl}-butyramide]",5.01
17,"CC(=O)NC(CCN1CCN(C(COCc2cc(C(F)(F)F)cc(C(F)(F)F)c2)c2ccccc2)CC1)c1ccccc1 (stereo not drawn) [Compound 308, N-(3-{4-[2-(3,5-Bis-trifluoromethyl-benzyloxy)-1-phenyl-ethyl]-piperazin-1-yl}-1-phenyl-propyl)-acetamide]",12.6
18,"O=C(CCCCCN1CCN(C(COCc2cc(C(F)(F)F)cc(C(F)(F)F)c2)c2ccccc2)CC1)NO (stereo not drawn) [Compound 315, 6-{4-[2-(3,5-Bis-trifluoromethyl-benzyloxy)-1-phenyl-ethyl]-piperazin-1-yl}-hexanoic acid hydroxyamide]",5.01

# Tested on: verapamil binding site of the L-type calcium channel
# Experiment: Inhibition of [3H]D888 binding to the verapamil binding site of the L-type calcium channel (rat cerebral cortex membranes)
# Conditions: 10 μmol/l of test substance
# Description: 200-250 g male Sprague-Dawley rats are sacrificed by decapitation. Cerebral cortices are quickly dissected on ice and homogenized in a 20 mmol/l Tris-HCl (pH 7.4) buffer containing 250 mmol/l sucrose (buffer A). The homogenate is centrifuged at 30,000 g for 15 min at 4° C. The resulting crude membrane pellet is resuspended in a 50 mmol/l Tris-HCl (pH 7.4) buffer and incubated 15 min at 37° C. before being centrifuged at 30,000×g for 15 min at 4° C. After two more washes under the same conditions, the final pellet is resuspended in buffer A at a protein concentration ranging from 15 to 25 mg/ml and stored in liquid nitrogen.
# Binding experiments are essentially performed according to Reynolds J. et al., J. Pharmacol. Exp. Ther. (1986), 237, 731-738. (1986) with slight modifications.
# Membranes (120-175 μg/assay) are incubated at 25° C. for 60 min in 0.5 ml of a 50 mmol/l Tris-HCl buffer (pH 7.4) containing 2 mmol/l MgCl2, 0.2 to 0.4×10-9 mol/l of [^3H]D888 (85 Ci/mmol; Amersham, Belgium) and 10 μmol/l of the test substance. The non specific binding (NSB) is defined as the residual binding observed in the presence 10 μM verapamil. Membrane-bound and -free radioligands are separated by rapid filtration through glass fiber filters (equivalent to Whatman GF/C or GF/B; VEL, Belgium) presoaked in 0.1% polyethyleneimine to reduce non specific binding. Samples and filters are rinsed by at least 6 ml of 50 mmol/l Tris-HCl (pH 7.4) buffer. […] The radioactivity trapped onto the filters is counted by liquid scintillation in a β-counter.
# The inhibition of the radioligand specific binding is calculated as follows: [formula] • where BI and Bo represent the binding observed in the presence and absence of the test substance respectively; and • BNS is the non specific binding.
# Data analysis is performed by a computerized non linear curve fitting method using a set of equations describing several binding models assuming competitive interactions between ligands (Weiland G. A. and P. B. Molinoff Life Science (1981), 29, 313-330; Molinoff P. et al. (1981) Life Sci., 29, 427-443).
row,SMILES,% inhibition of [3H]D888 binding to the verapamil binding site of the L-type calcium channel
1,O=C(O)C(c1ccccc1)N1CCN([C@H](COCc2cc(C(F)(F)F)cc(C(F)(F)F)c2)c2ccccc2)CC1 (mixture of isomers) [Compound 244],−+ (+: inhibition comprised between 20 and 50%)
2,"N#Cc1ccc(C(COCc2cc(C(F)(F)F)cc(C(F)(F)F)c2)N2CCN(CC(=O)O)CC2)cc1 (stereo not drawn) [Compound 320, {4-[2-(3,5-Bis-trifluoromethyl-benzyloxy)-1-(4-cyano-phenyl)-ethyl]-piperazin-1-yl}-acetic acid]",0 (0: inhibition < 20%)
